# Results reported in patent US11548891B1, “Quaternary ammonium salts of phenanthroindolizidine and phenanthroquinolizidine alkaloids as hypoxia-targeted anticancer agents” (BATTERJEE MEDICAL COLLEGE, priority 2022, dated 2023).
# Read-outs that look alike come from different tables or passages of the source.
# Assays:
# [1] = tested on: MRC5; assay: Cytotoxicity under normoxia (MTT), MRC5; format: cell-based, human
# Description: (§1) The cytotoxicity of the compounds 5a-c and their parent alkaloids was evaluated by the 3-[4,5-dimethylthiazole-2-yl]-2,5-diphenyltetrazolium bromide (MTT) assay against 5 cancerous and 2 non-cancerous cell lines (Table 4).
# (§2) The eight cell lines HEK293 (Human embryonic kidney 293), CHO-Kt (Chinese hamster ovary K1), MCF-7 cells (Human breast adenocarcinoma), HCT116 (human colorectal carcinoma), RKO (Human rectal carcinoma), SW480 (human colorectal carcinoma), H460 (Human lung cancer), and MRCS (Normal human fetal lung fibroblast), were obtained from the ATCC. The cell lines were routinely grown in alpha minimum essential medium (α-MEM) containing 5% fetal calf serum (FCS). The appropriate number of cells (HCT116=400 cells/well, H460 cells=600 cells/well) were seeded into 96-well plates under normoxic or hypoxic conditions. Cells were plated in 100 μL α-MEM containing 10% FCS, 10 mM D-Glucose and 0.2 mM 20-deoxycytidine. After incubation for 2 h, the compounds were added at the appropriate concentration and incubated for further 4 h. The cells were then washed three times with drug-free α-MEM (containing 5% FCS and pen/strep). The plates were then incubated for 5 days under normoxic conditions. The cells were stained with sulphorhodamine B to measure total cells as per the standard procedure described in Skehan, et. al. [Skehan, P., et. al., J. Natl. Cancer Inst., 1990, 82, 1107-1112, incorporated herein by reference in its entirety]. The IC50 was determined by interpolation as the compound concentration reducing staining to 50% of controls on the same plate as per the standard procedure described in Guise, et. al. [Guise, C. P., et. al., Biochem. Pharmacol., 2007, 74, 810-820, incorporated herein by reference in its entirety].
# [2] = tested on: H460; assay: Cytotoxicity under normoxia and hypoxia (anaerobic chamber), H460; format: cell-based, Human; conditions: for IC50: 4 h exposure
# Description: (§3) The ability of the designed prodrugs to liberate the active alkaloids in hypoxic tumors was evaluated by testing them under hypoxic conditions using an anaerobic chamber. The three prodrugs 5a-c and their parent alkaloids as well as the reference compounds PR-104A, the parent alcohol form of the phosphate pre-prodrug PR-104, and evofosfamide were tested using the HCT116 and H460 cell lines under both normoxic and hypoxic conditions (Table 5). The prodrugs were much less cytotoxic than the parent drugs, in agreement with the results using the other cell lines described above (see FIG. 6).
# as §2
# [3] = tested on: HCT116; assay: Cytotoxicity under normoxia and hypoxia (anaerobic chamber), HCT116; format: cell-based, human; conditions: for IC50: 4 h exposure
# Description: as §3, §2
# [4] = tested on: CHO-K1; assay: Cytotoxicity under normoxia (MTT), CHO-K1; format: cell-based, Chinese hamster
# Description: as §1, §2
# [5] = LogD; format: physicochemical
# Description: (§4) Water solubility, log D, and PAMPA-BBB were evaluated using the protocols as described in Omran, et. al. [Omran, Z., et. al., Chem. Pharm. Bull., 2019, 67, 1208-1210, incorporated herein by reference in its entirety].
# [6] = Mouse microsomal liver stability assay; conditions: 2 μM
# Description: Protoc. […] Microsomal incubations were carried out in 96-well plates in 5 aliquots of 40 μL each. […] Control incubations were performed by replacing the NADPH-cofactor system with PBS. The additional control incubations in PBS (with 3.3 mM MgCl2) without added microsomes were carried out in this study. […] The incubations were performed in duplicates. Five time points over 40 min had been analyzed. The reactions were stopped by adding 12 volumes of 90% acetonitrile-water to incubation aliquots, followed by protein sedimentation by centrifuging at 5500 rpm for 3 min. The supernatants were analyzed using LC-MS as mentioned above.
# [7] = BBB-Parallel Artificial Membrane Permeability Assay (BBB-PAMPA); format: in vitro ADME
# Description: The physicochemical properties of the new compounds were evaluated (Table 1). […] Consequently, these derivatives lost their BBB penetrability, as predicted by the BBB-Parallel Artificial Membrane Permeability Assay (BBB-PAMPA), whereas their parent alkaloids had free passage through the BBB.
# as §4
# [8] = tested on: MCF7; assay: Cytotoxicity under normoxia (MTT), MCF7; format: cell-based, Human
# Description: as §1, §2
# [9] = tested on: RKO; assay: Cytotoxicity under normoxia (MTT), RKO; format: cell-based, Human; conditions: read-out: IC50 RKO
# Description: as §1, §2
# [10] = PBS (pH 7.4) solubility; format: physicochemical
# Description: as §4
# [11] = tested on: HCT116; assay: Cytotoxicity under normoxia (MTT), HCT116; format: cell-based, human
# Description: as §1, §2
# [12] = tested on: SW480; assay: Cytotoxicity under normoxia (MTT), SW480; format: cell-based, human
# Description: as §1, §2
# [13] = tested on: HEK293; assay: Cytotoxicity under normoxia (MTT), HEK293; format: cell-based, Human
# Description: as §1, §2
# [14] = H460, hypoxia, read-out: IC50 (Hypoxia)
# [15] = H460, normoxia, read-out: IC50 (Normoxia)
# [16] = HTC 116, hypoxia, read-out: IC50 (Hypoxia)
# [17] = HTC 116, normoxia, read-out: IC50 (Normoxia)
# [18] = normoxia, read-out: IC50 CHO-K1
# [19] = mouse hepatic microsomes, 37° C.
# [20] = normoxia, read-out: IC50 HCT116
# [21] = normoxia, read-out: IC50 HEK293
# [22] = Homo sapiens, MRC5, read-out: IC50 MRC5
# [23] = Homo sapiens, NCI-H460, H460, hypoxia, read-out: IC50 (Hypoxia)
# [24] = Homo sapiens, NCI-H460, H460, normoxia, read-out: IC50 (Normoxia)
# [25] = Homo sapiens, HCT-116, HTC 116, hypoxia, read-out: IC50 (Hypoxia)
# [26] = Homo sapiens, HCT-116, HTC 116, normoxia, read-out: IC50 (Normoxia)
# [27] = Cricetulus griseus, CHO-K1, read-out: IC50 CHO-K1
# [28] = Homo sapiens, MCF7, read-out: IC50 MCF7
# [29] = Homo sapiens, HCT-116, read-out: IC50 HCT116
# [30] = Homo sapiens, SW480, read-out: IC50 SW480
# [31] = Homo sapiens, HEK293, read-out: IC50 HEK293
SMILES,HCR (Hypoxia Cytotoxicity Ratio = normoxic IC50/hypoxic IC50) ([2]; H460),"IC50 [2, 14] [nM]","IC50 [2, 15] [nM]",HCR (Hypoxia Cytotoxicity Ratio = normoxic IC50/hypoxic IC50) ([3]; HTC 116),"IC50 [3, 16] [nM]","IC50 [3, 17] [nM]",LogD Mean ± SE [5],Permeability (Papp) Log [10^−6 cm/s] Mean ± SE [7],PBS (pH 7.4) Solubility μM Mean ± SE [10] [μM],"IC50 [2, 23] [nM]","IC50 [2, 24] [nM]","IC50 [3, 25] [nM]","IC50 [3, 26] [nM]",other results
"COc1ccc2c3c(c4cc(OC)c(OC)cc4c2c1)C[C@H]1CCCN1C3 [(R)-Antofine, (R)-antofine]",0.6,25.4,29.2,0.4,16.7,23.9,3.68 ± 0.03,−5.6 ± 0.58 Log [10^−6 cm/s],27 ± 2,–,–,–,–,"IC50 ([1]; normoxia, read-out: IC50 MRC5): 6 ± 2 nM; IC50 [4, 18]: 33 ± 50 nM; Kel, min^−1 (elimination rate constant) [6, 19]: 0.002 ± 0 min⁻¹; t1/2, min [6, 19]: 67.5 ± 2.1 min; IC50 ([8]; normoxia, read-out: IC50 MCF7): 2 nM; IC50 ([9]; normoxia): 2 nM; IC50 [11, 20]: 2 nM; IC50 ([12]; normoxia, read-out: IC50 SW480): 9 ± 2 nM; IC50 [13, 21]: 340 ± 43 nM"
COc1cc2c3c(c4cc(OC)c(OC)cc4c2cc1OC)CN1CCC[C@@H]1C3 [(R)-Tylophorine],1.1,161,175,0.6,56.4,1710,–,–,–,–,–,–,–,"IC50 ([1]; normoxia, read-out: IC50 MRC5): 95 ± 6 nM; IC50 ([8]; normoxia, read-out: IC50 MCF7): 101 ± 88 nM; IC50 ([9]; normoxia): 338 ± 61 nM; IC50 [11, 20]: 440 ± 36 nM; IC50 ([12]; normoxia, read-out: IC50 SW480): 1150 ± 244 nM"
COc1cc2c3c(c4cc(OC)c(OC)cc4c2cc1OC)CN1CCC[C@H]1C3 [(S)-Tylophorine],1.1,102,108,0.5,50.1,35.1,3.14 ± 0.02,−5.4 ± 0.17 Log [10^−6 cm/s],2 ± 0,–,–,–,–,"IC50 ([1]; normoxia, read-out: IC50 MRC5): 27 ± 2 nM; IC50 [4, 18]: 35 ± 42 nM; Kel, min^−1 (elimination rate constant) [6, 19]: 0.005 ± 0 min⁻¹; t1/2, min [6, 19]: 127.5 ± 3.0 min; IC50 ([8]; normoxia, read-out: IC50 MCF7): 62 ± 13 nM; IC50 ([9]; normoxia): 202 ± 3 nM; IC50 [11, 20]: 85 ± 6 nM; IC50 ([12]; normoxia, read-out: IC50 SW480): 69 ± 20 nM; IC50 [13, 21]: 16 ± 26 nM"
CN(C)CCCN1c2ccccc2Sc2ccc(Cl)cc21 [Chlorpromazine],–,–,–,–,–,–,–,−5.4 ± 0.13 Log [10^−6 cm/s],–,–,–,–,–,–
CN1CCN(C2=Nc3cc(Cl)ccc3Nc3ccccc32)CC1 [Clozapine],–,–,–,–,–,–,–,−5.1 ± 0.12 Log [10^−6 cm/s],–,–,–,–,–,–
"COc1ccc2c3c(c4cc(OC)c(OC)cc4c2c1)C[C@H]1CCC[N+]1(Cc1c([N+](=O)[O-])ncn1C)C3.[Br-] (stereo partly drawn) [Compound 5a, (13aR)-2,3,6-trimethoxy-10-((1-methyl-4-nitro-1H-imidazol-5-yl)methyl)-10,11,12,13,13a, 14-hexahydro-9H-dibenzo[f,h]pyrrolo[1,2-b]isoquinolin-10-ium bromide]",–,–,–,–,–,–,0.69 ± 0.01,<−7 Log [10^−6 cm/s],154 ± 0,618,15800,425,16500,"IC50 [1, 22]: 327 ± 147 nM; IC50 [4, 27]: 1680 ± 542 nM; IC50 [8, 28]: 1530 ± 144 nM; IC50 ([9]; Homo sapiens, RKO): 2030 ± 267 nM; IC50 [11, 29]: 1040 ± 21 nM; IC50 [12, 30]: 1350 ± 0.126 nM; IC50 [13, 31]: 5080 ± 519 nM"
"COc1cc2c3c(c4cc(OC)c(OC)cc4c2cc1OC)C[N+]1(Cc2c([N+](=O)[O-])ncn2C)CCC[C@H]1C3.[Br-] (stereo partly drawn) [Compound 5b, (13aS)-2,3,6,7-tetramethoxy-10-((1-methyl-4-nitro-1H-imidazol-5-yl)methyl)-10,11,12,13,13a, 14-hexahydro-9H-dibenzo[f,h]pyrrolo[1,2-b]isoquinolin-10-ium bromide]",–,–,–,–,–,–,0.38 ± 0.04,<−7 Log [10^−6 cm/s],162 ± 3,3220,77600,1460,4490,"IC50 [1, 22]: 3310 ± 163 nM; HCR (Hypoxia Cytotoxicity Ratio = normoxic IC50/hypoxic IC50) [2]: 24; DR (Deactivation Ratio = IC50 (prodrug)/IC50 (parent drug)) ([2]; H460, normoxia): 719; HCR (Hypoxia Cytotoxicity Ratio = normoxic IC50/hypoxic IC50) [3]: 11.3; DR (Deactivation Ratio = IC50 (prodrug)/IC50 (parent drug)) ([3]; HTC 116, normoxia): 689; IC50 [4, 27]: 3490 ± 843 nM; Kel, min^−1 (elimination rate constant) ([6]; male, Balb/c, mouse, pH 7.4): 0.002 ± 0 min⁻¹; compound metabolized into the parent drug ([6]; male, Balb/c, mouse, microsomes, pH 7.4): less than 1%; IC50 [8, 28]: 1500 ± 128 nM; IC50 ([9]; Homo sapiens, RKO): 4060 ± 181 nM; IC50 [11, 29]: 3300 ± 1560 nM; IC50 [12, 30]: 7240 ± 490 nM; melting point: 165 to 167 °C; IC50 [13, 31]: 950 ± 174 nM"
"COc1cc2c3c(c4cc(OC)c(OC)cc4c2cc1OC)C[N+]1(Cc2c([N+](=O)[O-])ncn2C)CCC[C@@H]1C3.[Br-] (stereo partly drawn) [Compound 5c, (13aR)-2,3,6,7-tetramethoxy-10-((1-methyl-4-nitro-1H-imidazol-5-yl)methyl)-10,11,12,13,13a, 14-hexahydro-9H-dibenzo[f,h]pyrrolo[1,2-b]isoquinolin-10-ium bromide]",–,–,–,–,–,–,–,–,–,6500,51000,3020,9060,"IC50 [1, 22]: 3940 ± 127 nM; HCR (Hypoxia Cytotoxicity Ratio = normoxic IC50/hypoxic IC50) [2]: 7.8; DR (Deactivation Ratio = IC50 (prodrug)/IC50 (parent drug)) ([2]; H460, normoxia): 293; HCR (Hypoxia Cytotoxicity Ratio = normoxic IC50/hypoxic IC50) [3]: 1.5; DR (Deactivation Ratio = IC50 (prodrug)/IC50 (parent drug)) ([3]; HTC 116, normoxia): 128; IC50 [8, 28]: 8050 ± 343 nM; IC50 ([9]; Homo sapiens, RKO): 8820 ± 3080 nM; IC50 [11, 29]: 9020 ± 1130 nM; IC50 [12, 30]: 9860 ± 1690 nM; melting point: 185 to 187 °C"
"Cn1c(COP(=O)(NCCBr)NCCBr)cnc1[N+](=O)[O-] [Evofosfamide, evofosfamide]",251,–,–,85,–,–,–,–,–,17.2,4320,20.1,23.9,–
COC(=O)Nc1nc2ccc(C(=O)c3ccccc3)cc2[nH]1 [Mebendazole],–,–,–,–,–,–,3.26 ± 0.01,–,–,–,–,–,–,–
Cc1nccn1CC1CCc2c(c3ccccc3n2C)C1=O (centres unmarked) [Ondansetron],–,–,–,–,–,–,–,–,96 ± 3,–,–,–,–,–
CS(=O)(=O)OCCN(CCBr)c1c(C(=O)NCCO)cc([N+](=O)[O-])cc1[N+](=O)[O-] [PR-104A],2.5,533,1340,10.5,861,16500,–,–,–,–,–,–,–,–
CNC(=C[N+](=O)[O-])NCCSCc1ccc(CN(C)C)o1 [Ranitidine],–,–,–,–,–,–,–,<−7 Log [10^−6 cm/s],–,–,–,–,–,–
